Entries after “also recorded” stand apart in the source; their conditions may differ.
Tests used:
human endothelial cells = experiment: Genomic investigation (Affymetrix microarray, Taqman validation) of gene expression of human endothelial cells; type: cell-based; conditions: human endothelial cells in vitro and human plasma
Text: We have employed a genomic approach to comprehensively investigate the effects of (−)-epicatechin (including a mixture of (−)-epicatechin metabolites), procyanidin dimer B1, and procyanidin dimer A2 on the gene expression of human endothelial cells in vitro. Following the completion of an extensive evaluation utilizing an Affymetrix Oligonucleotide Microarray Gene Expression Analysis System, we have subsequently validated our findings using Taqman® Gene Expression Assays, and confirmed the ensuing data by directly assessing amounts or activities of the target proteins in cultured human endothelial cells and human plasma, respectively.

[1] = system: tPA mRNA expression in human umbilical vein endothelial cells (HUVEC); experiment: Taqman gene expression assay, tPA mRNA in HUVEC; type: cell-based; conditions: 5 μM, 0.5 to 24 hours, FIG. 1A
Procedure: (§1) Human umbilical vein endothelial cells (HUVEC) were cultured in an endothelium-specific, 2% serum-containing, growth factor-supplemented, antibiotic-free culture medium. Cryo-preserved cells from a single, donor in passage 1 or 2 were directly seeded into fibronectin-coated 6 well plates at a seeding density of 5000 cells/cm^2 and cultured without sub-culturing using standard cell culture conditions. 50% of the medium was replaced with fresh medium every 24 h until confluence. Cells were treated with the B1 dimer at a final concentration of μ5 M for 0.5, 2, 4, and 24 hours, respectively, and mRNA was isolated with a Qiagen mRNA Isolations System. cDNA was synthesized from mRNA samples using a HPLC-purified T7 Oligo(dT) primer and SuperScript II reverse transcriptase enzyme (Invitrogen). The ensuing cDNA samples were purified using a Qiagen PCR purification system. The cDNA templates were added to standardized Taqmang® Gene Expression Assays (Applied Biosystems) reactions mixtures and a Real-Time PCR was performed using standardized thermo-cycling conditions. An absolute quantification method of analyzing gene expression levels was used on triplicate reactions of each sample, and amplification plots generated by the Applied Biosystems 7900HT Fast Real-Time PCR System were analyzed using ABI Prism SDS v2.1 software.

[2] = system: uPA mRNA expression in human umbilical vein endothelial cells (HUVEC); experiment: Taqman gene expression assay, uPA mRNA in HUVEC; type: cell-based; conditions: 5 μM, 0.5 to 24 hours, FIG. 1B
Procedure: as §1

[3] = system: PAI mRNA expression in human umbilical vein endothelial cells (HUVEC); experiment: Taqman gene expression assay, PAI mRNA in HUVEC; type: cell-based; conditions: 5 μM, 0.5 to 24 hours, FIG. 1C
Procedure: as §1

tPA release from HUVEC = experiment: tPA release from HUVEC, tPA activity in culture medium (ELISA-based assay); type: cell-based, human
Procedure: HUVEC cultures were established as detailed above, by seeding HUVEC into fibronectin-coated 6 well plates at a seeding density of 5000 cells/cm^2. Cells were cultured without sub-culturing using standard cell culture conditions. 50% of the medium was replaced with fresh medium every 24 h. […] The remaining medium was collected and the weight was recorded for subsequent activity calculations (for calculation purposes we assumed that 1 g of medium=1 mL). tPA and PAI release was measured as the activity of the respective proteins in the collected media using an ELISA-based assay [Innovative Research Inc., Southfield, Mich., USA] in accordance with the manufacturer's instructions.

PAI release from HUVEC = experiment: PAI activity in HUVEC culture medium (ELISA-based assay); type: cell-based, human; conditions: 24 h, not quite statistically significant (P=0.061, One Way ANOVA)
Procedure: (§2) HUVEC cultures were established as detailed above, by seeding HUVEC into fibronectin-coated 6 well plates at a seeding density of 5000 cells/cm^2. Cells were cultured without sub-culturing using standard cell culture conditions. 50% of the medium was replaced with fresh medium every 24 h. Following an incubation of the HUVECs with the TC at a concentration of 5 μM for 24 h, an aliquote of the media was collected and analyzed for its content of tPA, and PAI, respectively. The remaining medium was collected and the weight was recorded for subsequent activity calculations (for calculation purposes we assumed that 1 g of medium=1 mL). tPA and PAI release was measured as the activity of the respective proteins in the collected media using an ELISA-based assay [Innovative Research Inc., Southfield, Mich., USA] in accordance with the manufacturer's instructions.

[4] = system: total PAI in HUVEC medium; experiment: Total PAI (free and tPA/uPA-bound) in HUVEC culture medium; type: cell-based, human; conditions: 24 h, 5 μM as compared to 1 μM, FIG. 3
Procedure: as §2

plasma tPA = experiment: Plasma tPA activity after ingestion by human volunteers; type: in vivo; conditions: for plasma tPA activity, time course: non-transformed (raw) data
Procedure: (§3) The test compound was administered to human volunteers in accordance with IRB-approved protocols and as detailed in the previous section of this report. The activity of tPA, uPA, and PAI in plasma was measured using an ELISA-based assay [Innovative Research Inc., Southfield, Mich., USA] in accordance with the manufacturer's instructions.

plasma tPAtotal = experiment: Plasma tPAtotal (free and bound tPA) after ingestion by human volunteers; type: in vivo; conditions: raw data, One Way ANOVA P=0.769
Procedure: as §3
In addition to measurements of plasma tPA activity, we determined the amount of tPAtotal in plasma (tPAtotal=free and bound tPA).

plasma uPA = experiment: Plasma uPA activity after ingestion by human volunteers; type: in vivo; conditions: raw data
Procedure: as §3

plasma PAI = experiment: Plasma PAI activity after ingestion by human volunteers; type: in vivo
Procedure: as §3

[5] = Closure time after ingestion by human volunteers; type: in vivo; conditions: FIG. 4

For Oc1cc(O)c2c(c1)O[C@H](c1ccc(O)c(O)c1)[C@H](O)C2 [(−)-epicatechin], the “expression, secreting or activity of various proteins related to cardiovascular function” value (from here on “expression, secreting or activity”) (human endothelial cells) was “modulated”.

In the case of Oc1cc(O)c2c(c1)O[C@@]1(c3ccc(O)c(O)c3)Oc3cc(O)c4c(c3[C@@H]2[C@H]1O)O[C@H](c1ccc(O)c(O)c1)[C@H](O)C4 [A2 dimer, epicatechin-(4β→8; 2β→O→7)-epicatechin], the “expression, secreting or activity” value (human endothelial cells) is reported as “modulated”.

For Oc1cc(O)c2c(c1)O[C@H](c1ccc(O)c(O)c1)[C@H](O)[C@H]2c1c(O)cc(O)c2c1O[C@H](c1ccc(O)c(O)c1)[C@@H](O)C2 [B1 dimer, procyanidin dimer B1], the “mRNA expression for tPA” value [1] was “time-dependent increases”, the “mRNA expression for uPA” value [2] was “time-dependent increases” and the “expression of PAI mRNA” value [3] was “decreases”. For the same compound, the “increases in media-present tPA activity versus vehicle” value (tPA release from HUVEC; 24 h, 5 μM and 10 μM, One Way ANOVA followed by Tukey Test) was “significantly different from vehicle treatments”, the “tPA activity in the cell culture medium” value (tPA release from HUVEC; 24 hours of incubation, different concentrations, FIG. 2) was “dose-dependent increase; also recorded: increase in tPA activity” and the “activity of PAI in the media” value (PAI release from HUVEC) was “dose-dependant decrease”. For the same compound, the “total PAI (free and tPA/uPA-bound) in medium” value [4] was “modulate; also recorded: increase in total PAI”, the “increase in tPAmax (mean maximal increase in plasma tPA activity)” value (plasma tPA; n=4) was 46% and the “mean tPAmax” value (plasma tPA; n=4) was 261.4+/−39.4 mU/mL. For the same compound, the “plasma tPA activity, time course” value (plasma tPA; One Way ANOVA P=0.333) was “time-dependent increase”, the “plasma tPA activity, time course” value (plasma tPA; One Way ANOVA P=0.333, listed as B1) was “increases plasma tPA activity” and the “plasma tPAtotal levels, time-dependent change” value (plasma tPAtotal) was “neither the ingestion of the B1 dimer nor that of the vehicle caused a time-dependent change”. The “plasma uPA activity, time-dependent change” value (plasma uPA) was “did not cause a statistically significant, time-dependant change”, the “plasma PAI activity, time-dependent change” value (plasma PAI; raw data) was “did not cause a statistically significant, time-dependant change” and the “PAI plasma activity, normalized to individual baselines” value (plasma PAI; statistical significance at 4 h post-ingestion (P=0.011, t-test)) was “time-dependently decreased”. For the same compound, the “closure time as compared to vehicle (water)” value [5] was “augmentation of the closure time” and the “expression, secreting or activity” value (human endothelial cells) was “modulated”.
